# EP0462621A2, “Use of particular compounds for manufacture of pharmaceutical formulations for treatment against various parasites, mycoplasmas, other indications and other infections” (Prendergast, Patrick Thomas, priority 1990, dated 1991)
# Tests used:
# [1] = system: T. cruzi; assay: T. cruzi epimastigote (EPI) in-vitro screen; type: cell-based
# Method: (§3) In-vitro chemotherapy screens have for many years used models involving three stages of the T. cruzi life cycle: • (1) Epimastigote. Dividing populations are easily cultivated in a range of defined and semi-defined media, but are equivalent to a vector stage of the life cycle. • (2) Trypomastigote. These are isolated from a rodent host and can be maintained as a non-dividing population for 24-48 h in media. • (3) Amastigote. Dividing populations can be cultivated in muscle cells, fibroblasts and macrophages, following infection with trypomastigotes. After the initial infection, there is normally a period of 4-5 days during which the amastigotes divide before transforming, via the epimastigote stage, back to trypomastigotes which escape from the cell. Drug activity is measured during this 4-5 day period. A dividing host cell population, low infection rate, and the presence of trypomastigotes in the overlay can complicate the interpretation of results.
# [2] = system: T. cruzi; assay: T. cruzi trypomastigote (TRY) in-vitro screen; type: cell-based
# Method: as §3
# [3] = system: T. cruzi; assay: T. cruzi intracellular amastigote (AM) in-vitro screen; type: cell-based
# Method: Dividing populations can be cultivated in muscle cells, fibroblasts and macrophages, following infection with trypomastigotes. After the initial infection, there is normally a period of 4-5 days during which the amastigotes divide before transforming, via the epimastigote stage, back to trypomastigotes which escape from the cell. Drug activity is measured during this 4-5 day period. A dividing host cell population, low infection rate, and the presence of trypomastigotes in the overlay can complicate the interpretation of results.
# Intracellular amastigote models can use a range of muscle (skeletal and cardiac) and fibroblast (e.g. HeLa, HePa) cell lines, macrophages, and chick embryo cells. […] To overcome the problems of overgrowth of the monolayer and a low percentage of infected cells, often associated with the use of cell lines, irradiated rat L6 myoblasts are used.
# [4] = system: T. cruzi; assay: T. cruzi mouse model, in-vivo
# From the text: (§1) In-vitro and in-vivo models were used to test activities of a selection of many compounds. Those activities are summarized in Tables 1-3, showing variation between systems and species. Activities measured in the MP mo and HM mo models have shown the best correlation with results obtained in hamster and mouse models.
# [5] = system: T.b. brucei, T.b. gambiense and T.b. rhodesiense; assay: Isolated bloodstream trypomastigote (TRY) in-vitro screen; type: cell-based
# Method: (§2) Primary screening for new trypanocides has made extensive use of rodent systems, in which host survival time is a simple indicator of drug activity. In-vitro screens have used a variety of trypomastigote types (see Table 3, below). […] Most early in-vitro screens employed a short test in which bloodstream trypomastigotes were isolated from an infected rodent and maintained for up to 24 h in a simple drug-containing media. Two significant modifications of this technique include maintaining isolated bloodstream trypomastigotes in drug-containing media for 3-4 hours at 37° C in micro-titre plates and their subsequent viability assessed by the uptake of radiolabelled precursors or motility and infectivity to mice.
# In-vitro studies on isolated bloodstream trypomastigotes were also used in the rational biochemical approaches towards the chemotherapy of T. brucei infections involving inhibitors of carbohydrate catabolism salicyl hydroxamic acid plus glycerol), of polyamine synthesis (methylgyoxal bis-guanylhydrazone and - DFMO), and of surface coat glycoprotein synthesis (Tunicamycin). In these studies, activity of the compounds are shown in-vitro and in-vivo, whereas the sensitivity of isolated bloodstream trypomastigotes to toxic oxygen radicals generated by naphthoquinones was not shown by the parasites in mice. The activity of the standard anti-trypanosomals-melarsoprol, pentamidine and suramin and tested compounds according to the present invention in in-vitro systems is shown in Table 3.
# as §1
# [6] = system: T.b. brucei, T.b. gambiense and T.b. rhodesiense; assay: Cultivated bloodstream trypomastigote (TRY) in-vitro screen; type: cell-based
# From the text: Culture systems developed in the last decade have used mammalian cell feeder layers to support the growth of dividing populations of bloodstream trypomastigotes of T. brucei spp. Some of these systems have been used in chemotherapy studies, including; (1) bovine fibroblast culture - T. brucei models to test some standard and experimental compounds, (2) murine bone marrow culture - T.b. gambiense model to screen inosine analogues and platinum and hypolipidemic compounds, and (3) Microtus embryonic fibroblast culture (MEF) - T.b. rhodesiense model to test standard and experimental drugs. These systems give a good indication of in-vivo activity (see Table 3). They measure activity against dividing cells rather than specific macromolecular synthesis pathways and can be readily established in micro-titre plates. The MEF and bone marrow cell feeder layers can be used to grow a range of strains of T. brucei spp., offering the possibility of examining variations in drug susceptibility and resistance between strains. The presence of a feeder layer, however, limits the opportunities for the automation of these systems.
# as §1
# [7] = system: T.b. brucei, T.b. gambiense and T.b. rhodesiense; assay: African trypanosomiasis mouse model, in-vivo
# Method: as §2, §1
Structure (SMILES),"activity, EPI ([1]; T. cruzi strain MR)","activity, EPI ([1]; T. cruzi strain Sonya)","activity, EPI ([1]; T. cruzi strain Y)","activity, TRY ([2]; T. cruzi strain Sonya)","activity, TRY ([2]; T. cruzi strain Y)","activity, intracellular AM ([3]; T. cruzi strain Sonya)","activity, intracellular AM ([3]; T. cruzi strain Y)","activity, mouse model ([4]; T. cruzi strain Sonya)","activity, mouse model ([4]; T. cruzi strain Y)","activity, isolated bloodstream TRY [5]","activity, cultivated bloodstream TRY [6]","activity, mouse model [7]","activity, intracellular AM ([3]; T. cruzi strain WBH)","activity, mouse model ([4]; T. cruzi strain CL)","activity, mouse model ([4]; T. cruzi strain Tu)","activity, mouse model ([4]; T. cruzi strain WBH)"
"O=C(Cn1ccnc1[N+](=O)[O-])NCc1ccccc1 [Benznidazole, benznidazole, reference compound]","++(Y,MR, Sonya)","++(Y,MR, Sonya)","++(Y,MR, Sonya)","++(Y,Sonya)","++(Y,Sonya)","++(Y,Sonya)","++(Y,Sonya)",+,++,–,–,–,–,–,–,–
"Nc1nc(N)nc(Nc2ccc([As]3SCC(CO)S3)cc2)n1 (centres unmarked) [Melarsoprol, melarsoprol, reference compound]",–,–,–,–,–,–,–,–,–,+ +,+ +,+ +,–,–,–,–
"CC1CS(=O)(=O)CCN1/N=C/c1ccc([N+](=O)[O-])o1 (centres unmarked) [Nifurtimox, nifurtimox]",–,–,–,–,–,"++(Y,WBH, Sonya)","++(Y,WBH, Sonya)",+,++ and +,–,–,–,"++(Y,WBH, Sonya)",++ and +,+,++
